From US10941157B2, “Pesticidal compositions and uses thereof” (Gilead Apollo, LLC, priority 2015, dated 2021)
Values after ≈ are worked out from the molar mass of the structure shown. Read-outs that look alike come from different tables or passages of the source.

What was measured:
Type in all cases: cell-based
[1] = test system: Fusarium moniliforme (Fm); test: In vitro pathogen growth inhibition assay, Fm; conditions: Fusarium verticillioides
Method in brief: (§1)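 Spores in 17% V8 liquid medium, or 1.5 mm Rs mycelial plugs in ¼ PDB, incubated with compound; final concentration checked by OD600 for precipitation. OD readings at 24 and 48 h, blank-subtracted, plus visual ratings; value is concentration giving ≥90% growth inhibition.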

[2] = test system: Diplodia maydis (Dm); test: In vitro pathogen growth inhibition assay, Dm; conditions: Stenocarpella maydis, 48 h
Method in brief: (§2)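 Value reported is the compound concentration reaching ≥90% growth inhibition, from OD readings at 24 and 48 h after blank subtraction, confirmed visually. Inoculum was spores diluted in 17% V8 medium, except Rs, using 1.5 mm mycelial plugs in ¼ PDB; actual compound concentration corrected via OD600.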

[3] = test system: Septoria tritici (St); test: In vitro pathogen growth inhibition assay, St; conditions: Zymoseptoria tritici, 48 h
Method in brief: as §1

[4] = test system: Botrtyis cinerea (Bc); test: In vitro pathogen growth inhibition assay, Bc; conditions: 48 h
Method in brief: as §1

[5] = test system: Phytophthora capsici (Pc); test: In vitro pathogen growth inhibition assay, Pc; conditions: 48 h
Method in brief: as §2

[6] = test system: Rhizoctonia solani (Rs); test: In vitro pathogen growth inhibition assay, Rs (mycelial plugs); conditions: Rhizoctonia solani, 48 h
Method in brief: as §2

[7] = test system: Collectotrichum graminicola (Cg); test: In vitro pathogen growth inhibition assay, Cg; conditions: 48 h
Method in brief: as §1

[8] = test system: Fusarium virguliforme (Fv); test: In vitro pathogen growth inhibition assay, Fv
Method in brief: as §2

[9] = ≥90% growth inhibition, 48 hours, vs 2% DMSO control, read-out: Compound Concentration (ppm) sufficient for ≥90% inhibition of Fm
[10] = ≥90% growth inhibition, 48 hours, vs 2% DMSO control, read-out: Compound Concentration (ppm) sufficient for ≥90% inhibition of Dm
[11] = ≥90% growth inhibition, 48 hours, vs 2% DMSO control, read-out: Compound Concentration (ppm) sufficient for ≥90% inhibition of St
[12] = ≥90% growth inhibition, 48 hours, vs 2% DMSO control, read-out: Compound Concentration (ppm) sufficient for ≥90% inhibition of Bc
[13] = ≥90% growth inhibition, 48 hours, vs 2% DMSO control, read-out: Compound Concentration (ppm) sufficient for ≥90% inhibition of Pc
[14] = ≥90% growth inhibition, mycelial plugs, 48 hours, vs 2% DMSO control, read-out: Compound Concentration (ppm) sufficient for ≥90% inhibition of Rs
[15] = ≥90% growth inhibition, 48 hours, vs 2% DMSO control, read-out: Compound Concentration (ppm) sufficient for ≥90% inhibition of Cg
[16] = ≥90% growth inhibition, 48 hours, vs 2% DMSO control, read-out: Compound Concentration (ppm) sufficient for ≥90% inhibition of Fv
[17] = ≥90% inhibition, 48 hours vs 2% DMSO control, read-out: Compound Concentration (ppm) sufficient for ≥90% inhibition of growth, Fm
[18] = ≥90% inhibition, 48 hours vs 2% DMSO control, read-out: Compound Concentration (ppm) sufficient for ≥90% inhibition of growth, Dm
[19] = ≥90% inhibition, 48 hours vs 2% DMSO control, read-out: Compound Concentration (ppm) sufficient for ≥90% inhibition of growth, St
[20] = ≥90% inhibition, 48 hours vs 2% DMSO control, read-out: Compound Concentration (ppm) sufficient for ≥90% inhibition of growth, Bc
[21] = ≥90% inhibition, 48 hours vs 2% DMSO control, read-out: Compound Concentration (ppm) sufficient for ≥90% inhibition of growth, Pc
[22] = ≥90% inhibition, mycelial plugs, 48 hours vs 2% DMSO control, read-out: Compound Concentration (ppm) sufficient for ≥90% inhibition of growth, Rs
[23] = ≥90% inhibition, 48 hours vs 2% DMSO control, read-out: Compound Concentration (ppm) sufficient for ≥90% inhibition of growth, Cg
[24] = ≥90% inhibition, 48 hours vs 2% DMSO control, read-out: Compound Concentration (ppm) sufficient for ≥90% inhibition of growth, Fv

| Compound | IC90 [1, 9] | IC90 [2, 10] | IC90 [3, 11] | IC90 [4, 12] | IC90 [5, 13] | IC90 [6, 14] | IC90 [7, 15] | IC90 [8, 16] | IC90 [1, 17] | IC90 [2, 18] | IC90 [3, 19] | IC90 [4, 20] | IC90 [5, 21] | IC90 [6, 22] | IC90 [7, 23] | IC90 [8, 24] | further results |
| --- | --- | --- | --- | --- | --- | --- | --- | --- | --- | --- | --- | --- | --- | --- | --- | --- | --- |
| CCOC(=O)c1sc2c(c1C)c(=O)n(C(C)(C)C(N)=O)c(=O)n2C[C@H](OCCC#N)c1cc(F)ccc1OC [Compound I-180] | 0.4 µg/mL (≈ 0.714 µM) | > 50 µg/mL | > 50 µg/mL | 2 µg/mL (≈ 3.57 µM) | > 50 µg/mL | 10 µg/mL (≈ 17.8 µM) | 50 µg/mL (≈ 89.2 µM) | 10 µg/mL (≈ 17.8 µM) |  |  |  |  |  |  |  |  |  |
| COc1ccccc1[C@H](Cn1c(=O)n(C(C)(C)C(=O)N2CCCCC2)c(=O)c2c(C)c(-n3cccn3)sc21)OCC(C)C [Compound I-121] |  |  |  |  |  |  |  |  | 0.4 µg/mL (≈ 0.658 µM) | ≥ 2 µg/mL | > 50 µg/mL | 2 µg/mL (≈ 3.29 µM) | > 50 µg/mL | 50 µg/mL (≈ 82.3 µM) | 10 µg/mL (≈ 16.5 µM) | > 50 µg/mL |  |
| CCOC(=O)c1sc2c(c1C)c(=O)n(C(C)(C)C(=O)N1CCCC1)c(=O)n2C[C@H](O)c1cc(F)ccc1OC [Compound I-224] | 2 µg/mL (≈ 3.56 µM) | > 50 µg/mL | > 50 µg/mL | 2 µg/mL (≈ 3.56 µM) | > 50 µg/mL | 0.08 µg/mL (≈ 0.142 µM) | 10 µg/mL (≈ 17.8 µM) | 2 µg/mL (≈ 3.56 µM) |  |  |  |  |  |  |  |  |  |
| CCNC(=O)[C@@H](C)n1c(=O)c2c(C)c(-n3cccn3)sc2n(C[C@H](OCCC#N)c2cc(F)ccc2OC)c1=O [Compound I-295] | 0.4 µg/mL (≈ 0.703 µM) | 10 µg/mL (≈ 17.6 µM) | > 50 µg/mL | 2 µg/mL (≈ 3.52 µM) | > 50 µg/mL | 2 µg/mL (≈ 3.52 µM) | 2 µg/mL (≈ 3.52 µM) | 2 µg/mL (≈ 3.52 µM) |  |  |  |  |  |  |  |  |  |
| COc1ccc(F)cc1[C@](C)(Cn1c(=O)n(C(C)(C)C(=O)NC(C)C)c(=O)c2c(C)c(-n3nccn3)sc21)OCCC#N [Compound I-273] | 0.08 µg/mL (≈ 0.131 µM) | 50 µg/mL (≈ 81.7 µM) | > 50 µg/mL | 0.4 µg/mL (≈ 0.654 µM) | > 50 µg/mL | 2 µg/mL (≈ 3.27 µM) | 2 µg/mL (≈ 3.27 µM) | 0.4 µg/mL (≈ 0.654 µM) |  |  |  |  |  |  |  |  |  |
| COc1ccc(F)cc1[C@@H](CCCC#N)Cn1c(=O)n(C(C)(C)C(=O)NC(C)C)c(=O)c2c(C)c(-n3ccnn3)sc21 [Compound I-341] |  |  |  |  |  |  |  |  |  |  |  |  |  |  |  |  | IC90 ([1]; concentration sufficient to ≥90% inhibition of growth, 48 hours vs 2% DMSO control, read-out: Compound Concentration (ppm) for ≥90% inhibition, Fm): > 50 µg/mL; IC90 ([2]; concentration sufficient to ≥90% inhibition of growth, 48 hours vs 2% DMSO control, read-out: Compound Concentration (ppm) for ≥90% inhibition, Dm): > 50 µg/mL; IC90 ([3]; concentration sufficient to ≥90% inhibition of growth, 48 hours vs 2% DMSO control, read-out: Compound Concentration (ppm) for ≥90% inhibition, St): > 50 µg/mL; IC90 ([4]; concentration sufficient to ≥90% inhibition of growth, 48 hours vs 2% DMSO control, read-out: Compound Concentration (ppm) for ≥90% inhibition, Bc): > 50 µg/mL; IC90 ([5]; concentration sufficient to ≥90% inhibition of growth, 48 hours vs 2% DMSO control, read-out: Compound Concentration (ppm) for ≥90% inhibition, Pc): > 50 µg/mL; IC90 ([6]; concentration sufficient to ≥90% inhibition of growth, 48 hours vs 2% DMSO control, read-out: Compound Concentration (ppm) for ≥90% inhibition, Rs): > 50 µg/mL; IC90 ([7]; concentration sufficient to ≥90% inhibition of growth, 48 hours vs 2% DMSO control, read-out: Compound Concentration (ppm) for ≥90% inhibition, Cg): > 50 µg/mL; IC90 ([8]; concentration sufficient to ≥90% inhibition of growth, 48 hours vs 2% DMSO control, read-out: Compound Concentration (ppm) for ≥90% inhibition, Fv): > 50 µg/mL |
| COc1ccc(F)cc1[C@H](Cn1c(=O)n(C(C)(C)C(=O)N2CCCCC2)c(=O)c2c(C)c(-n3nccn3)sc21)OC(C)C [Compound I-022] |  |  |  |  |  |  |  |  | 0.08 µg/mL (≈ 0.131 µM) | 0.08 µg/mL (≈ 0.131 µM) | ≥ 2 µg/mL | 0.08 µg/mL (≈ 0.131 µM) | > 50 µg/mL | 0.08 µg/mL (≈ 0.131 µM) | 0.08 µg/mL (≈ 0.131 µM) | ≥ 0.08 µg/mL |  |
| COc1ccc(F)cc1[C@H](Cn1c(=O)n(C(C)(C)C(=O)N2CC=CC2)c(=O)c2c(C)c(-n3nccn3)sc21)OC(C)C [Compound I-067] |  |  |  |  |  |  |  |  | 0.08 µg/mL (≈ 0.134 µM) | 0.08 µg/mL (≈ 0.134 µM) | ≥ 2 µg/mL | 0.4 µg/mL (≈ 0.67 µM) | > 50 µg/mL | 0.4 µg/mL (≈ 0.67 µM) | 0.08 µg/mL (≈ 0.134 µM) | 0.4 µg/mL (≈ 0.67 µM) |  |
| COc1ccc(F)cc1[C@H](Cn1c(=O)n(C(C)C(=O)NC(C)C)c(=O)c2c(C)c(-n3cccn3)sc21)OC(C)C (some centres unmarked) [Compound I-126] |  |  |  |  |  |  |  |  | 0.4 µg/mL (≈ 0.7 µM) | 2 µg/mL (≈ 3.5 µM) | 50 µg/mL (≈ 87.5 µM) | 2 µg/mL (≈ 3.5 µM) | 50 µg/mL (≈ 87.5 µM) | 2 µg/mL (≈ 3.5 µM) | 2 µg/mL (≈ 3.5 µM) | 1.2 µg/mL (≈ 2.1 µM) |  |
| COc1ccc(F)cc1[C@H](Cn1c(=O)n([C@@H](C)C(=O)N2CCCC2)c(=O)c2c(C)c(-n3cccn3)sc21)OC(C)C [Compound I-063] |  |  |  |  |  |  |  |  | 0.08 µg/mL (≈ 0.137 µM) | ≥ 0.4 µg/mL | ≥ 50 µg/mL | 0.4 µg/mL (≈ 0.685 µM) | > 50 µg/mL | 2 µg/mL (≈ 3.43 µM) | 0.4 µg/mL (≈ 0.685 µM) | 0.4 µg/mL (≈ 0.685 µM) |  |
